Laboratory results published in patent publication US8569294B2, “2-(cyclic amino)-pyrimidone derivatives” (Mitsubishi Tanabe Pharma Corporation, priority 2006, dated 2013).

Target: T1, bovine cerebral TPK1 (Bos taurus, UniProt A0A3Q1MT31)
T1 construct: P-GS1 Phosphorylation by Bovine Cerebral TPK1; from tissue; host or cells: bovine cerebrum (brain)
Experiment: Inhibitory activity against P-GS1 phosphorylation by bovine cerebral TPK1
Format: biochemical
Details: 41.7 μM [γ-32P] ATP, 25° C., 2 hours
Description: Inhibitory Activity of the Medicament of the Present Invention Against P-GS1 Phosphorylation by Bovine Cerebral TPK1
A mixture containing 100 mM MES-sodium hydroxide (pH 6.5), 1 mM magnesium acetate, 0.5 mM EGTA, 5 mM β-mercaptoethanol, 0.02% Tween 20, 10% glycerol, 12 μg/ml P-GS1, 41.7 μM [γ-^32P] ATP (68 kBq/ml), bovine cerebral TPK1 and a compound shown in Table (a final mixture contained 1.7% DMSO deriving from a solution of a test compound prepared in the presence of 10% DMSO) was used as a reaction system. The phosphorylation was started by adding ATP, and the reaction was conducted at 25° C. for 2 hours, and then stopped by adding 21% perchloric acid on ice cooling. The reaction mixture was centrifuged at 12,000 rpm for 5 minutes and adsorbed on P81 paper (Whatmann), and then the paper was washed four times with 75 mM phosphoric acid, three times with water and once with acetone. The paper was dried, and the residual radioactivity was measured using a liquid scintillation counter.

T1 sequence (A0A3Q1MT31 1-419): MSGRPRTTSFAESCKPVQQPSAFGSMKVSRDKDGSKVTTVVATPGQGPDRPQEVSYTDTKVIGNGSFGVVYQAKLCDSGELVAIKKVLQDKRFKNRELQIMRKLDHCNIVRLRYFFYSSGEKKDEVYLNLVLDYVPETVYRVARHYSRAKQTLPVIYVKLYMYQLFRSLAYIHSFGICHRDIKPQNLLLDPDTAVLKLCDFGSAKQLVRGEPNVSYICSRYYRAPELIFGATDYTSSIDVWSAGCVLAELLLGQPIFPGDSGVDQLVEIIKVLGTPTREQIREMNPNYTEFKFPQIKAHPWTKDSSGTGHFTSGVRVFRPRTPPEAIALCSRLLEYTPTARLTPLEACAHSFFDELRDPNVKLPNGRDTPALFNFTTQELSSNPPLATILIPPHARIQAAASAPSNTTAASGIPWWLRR

Row | Compound | IC50 [nM]
1 | Cn1c(N2CCO[C@H]3CCCC[C@@H]32)nc(-c2ccncn2)cc1=O (racemic) [B69, 1-Methyl-2-((4aRS,8aRS)-trans-octahydro-benzo[1,4]oxazin-4-yl)-1H-[4,4′]bipyrimidinyl-6-one] | 4
2 | Cn1c(N2CCO[C@H]3c4ccccc4CC[C@@H]32)nc(-c2ccncc2F)cc1=O [B6] | 1.7
3 | Cn1c(N2CC3CCC2C(c2ccccc2)C3)nc(-c2ccncc2)cc1=O (centres unmarked) [B9] | 1.2
4 | COc1ccccc1NC1CC2CCC(C1)N2c1nc(-c2ccncc2F)cc(=O)n1C (centres unmarked) [B16] | 2.8
5 | COc1ccc2c(c1)CC[C@H]1[C@H]2OCCN1c1nc(-c2ccncc2F)cc(=O)n1C [B20] | 1.1
6 | COc1cccc2c1CC[C@@H]1[C@H]2OCCN1c1nc(-c2ccncc2)cc(=O)n1C [B37] | 1.5
7 | Cn1c(N2CCO[C@H]3c4ccccc4OC[C@H]32)nc(-c2ccncn2)cc1=O [B46] | 2.5
8 | C[C@@H]1COCCN1c1nc(-c2ccncc2F)cc(=O)n1C [B62] | 7
9 | Cn1c(N2C3CCCC2CC3)nc(-c2ccncc2F)cc1=O [B77] | 9.8
10 | Cn1c(N2CCN3CCc4ccccc4C3C2)nc(-c2ccncc2)cc1=O (centres unmarked) [B109, 2-(1,3,4,6,7,11b-Hexahydro-pyrazino[2,1-a]isoquinolin-2-yl)-3-methyl-6-pyridin-4-yl-3H-pyrimidin-4-one] | 14
11 | COc1ccccc1N1C[C@@H]2CN(c3nc(-c4ccncc4F)cc(=O)n3C)C[C@@H]2C1 [D16] | 14
12 | COc1cccc(N[C@@H]2CCN(c3nc(-c4ccncn4)cc(=O)n3C)C2)c1 [D42] | 7.9
13 | Cn1c(N2CCCC2Cc2ccccc2)nc(-c2ccncc2F)cc1=O (centres unmarked) [D95] | 5.6
14 | C[C@@H]1CN(c2ccccc2)CCN1c1nc(-c2ccncn2)cc(=O)n1C [F24] | 1.4
15 | C[C@@H]1CN(c2ncccn2)CCN1c1nc(-c2ccncc2F)cc(=O)n1C [F56] | 2.2
16 | C[C@@H]1CN(C(=O)c2ccc(N(C)C)cc2)CCN1c1nc(-c2ccncn2)cc(=O)n1C [F69] | 2.4
17 | C[C@H](N)c1nc(-c2ccc(N3CCN(c4nc(-c5ccncc5)cc(=O)n4C)[C@H](C)C3)cc2)no1 [F148] | 2.6
